What all share (assay type): biochemical
For assay [1], the target named is T1, Thrombin (recombinant thrombin) (Homo sapiens, UniProt P00734).
T1 construct: purchased R&D
The assay is described as follows: IC50 determination, spectrophotometric protease assay. The method in brief:
(§1)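 Compounds were first tested at 10, 1 and .1 μM, and only those reducing activity by at least 50% at 10 μM went on to full IC50 curves. Cleavage of substrates, dosed at their Km, was monitored 30 min at 37°C.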

For assay [2], the target named is T2, TLCK-treated pancreatic bovine chymotrypsin (Bos taurus, UniProt P00766).
T2 construct: TLCK-treated pancreatic bovine chymotrypsin (Sigma-Aldrich); purchased Sigma-Aldrich; host or cells: bovine pancreas
The assay is described as above. The method in brief: as §1

Assay [3] addresses T3, Cathepsin G (cathepsin G human neutrophil) (Homo sapiens, UniProt P08311).
T3 construct: Cathepsin G (cathepsin G human neutrophil, Sigma-Aldrich); purchased Sigma-Aldrich; host or cells: human neutrophil
T3 sequence (P08311 21-255): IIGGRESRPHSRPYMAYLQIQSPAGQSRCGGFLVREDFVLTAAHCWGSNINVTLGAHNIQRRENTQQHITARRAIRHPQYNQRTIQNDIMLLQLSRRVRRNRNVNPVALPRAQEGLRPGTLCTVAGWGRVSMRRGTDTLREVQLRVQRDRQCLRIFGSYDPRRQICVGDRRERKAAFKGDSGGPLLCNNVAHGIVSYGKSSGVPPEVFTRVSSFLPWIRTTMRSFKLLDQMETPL
The assay is described as above. In outline:
as §1

Assay [4] deals with T4, Trypsin-3 (recombinant trypsin-3) (Homo sapiens, UniProt P35030).
T4 construct: purchased R&D
T4 sequence (P35030 1-304): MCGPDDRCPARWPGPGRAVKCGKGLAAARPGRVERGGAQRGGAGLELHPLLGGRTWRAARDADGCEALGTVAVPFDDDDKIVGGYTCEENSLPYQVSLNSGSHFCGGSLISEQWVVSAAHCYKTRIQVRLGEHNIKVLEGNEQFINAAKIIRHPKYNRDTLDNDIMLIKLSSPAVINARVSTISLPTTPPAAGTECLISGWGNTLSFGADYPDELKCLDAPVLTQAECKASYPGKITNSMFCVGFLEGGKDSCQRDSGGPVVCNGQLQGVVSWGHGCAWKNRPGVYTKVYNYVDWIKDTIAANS
The description is as above. In outline:
as §1

Assay [5] addresses T5, β-tryptase (recombinant tryptase β-2) (Homo sapiens, UniProt P20231).
T5 construct: purchased EnzoLife Sciences
The description is as above. In outline: as §1

The next assay concerns the target T6, CatG (Homo sapiens, UniProt P08311).
T6 sequence (P08311 21-255): T3 sequence (P08311 21-255)
In words: Jump dilution, determination of inhibition type. The arrangement: Cathepsin G (cathepsin G human neutrophil, Sigma-Aldrich); purchased Sigma-Aldrich. Conditions: inhibitor at 10 times IC50, 15 min, diluted 10-fold or 100-fold; Rev./Irrev. How it is done:
(§2) The dissociation of the enzyme-inhibitor complex was monitored by substrate hydrolysis over time ([Joossens et al., 2006]).
(§3) Because ABPs are designed to be irreversible serine protease inhibitors, the IC50 is exclusively used as a first discriminatory evaluation. When an inhibitor is irreversible, its IC50 value not only depends on the substrate and enzyme concentration but also on the time of incubation with the enzyme before the reaction is started by adding the substrate. […] The progress curve in the presence of an irreversible inhibitor will show final velocities equal to zero (Figure 6C). In contrast, for a reversible inhibitor, progress curves have a non-zero final steady-state velocity (Figure 6A) ([McWhirter, 2021]). To corroborate the inhibitory mechanism of the compounds, jump-dilution assays were performed. These use an inhibitor concentration of 10-fold the IC50 for the incubation, and a posteriori, the reaction mixture is diluted 10-fold or 100-fold before adding the substrate. In the case of an irreversible inhibitor, enzymatic activity is not regained (Figure 6D), whereas, in the case of a reversible compound, a slow release of the inhibitor and a gradual increase of the enzymatic activity rate is observed (Figure 6B) ([Copeland, 2013]; [McWhirter, 2021]). The jump-dilution assays confirmed the behavior described by the progress curves.
(§4) 2.2.2 Jump dilution results
(§5) Supplementary Table 2. Jump dilution of selected alkyne and desthiobiotin probes against a panel of trypsin-like serine proteases. […]
(§6) # R R DtBa 3 tryptase Thrombin uPA CatG
(§7) 32b H Alk Irrev. Irrev. Rev. Irrev. Rev.
(§8) 45b DtB Irrev. Irrev. Rev. N.D. N.D.
(§9) 33b Alk Irrev. Irrev. Rev. Irrev. Rev.
(§10) 46b Cl DtB Irrev. Irrev. Rev. N.D. N.D.
(§11) 34b H Alk Rev. Rev. Rev. Irrev. Rev.
(§12) 50b DtB Rev. Rev. Rev. Irrev. Rev.
(§13) 35b Alk Rev. Rev. Rev. Irrev. Rev.
(§14) 52b NHCOMe DtB Rev. Rev. Rev. Irrev. Rev.
(§15) 36b Alk Rev. Rev. Rev. Irrev. Rev.
(§16) 54b Cl DtB Rev. Rev. Rev. Irrev. Rev.
(§17) 37b Alk Irrev. Irrev. N.D. Irrev. Irrev.
(§18) 55b H DtB Irrev. Irrev. N.D. Irrev. Irrev.
(§19) 38b Alk Irrev. Irrev. N.D. Irrev. Irrev.
(§20) 56b NHCOMe DtB Irrev. Irrev. N.D. Irrev. Irrev.
(§21) 39b Alk Irrev. Irrev. N.D. Irrev. Rev.
(§22) 57b Cl DtB Irrev. Irrev. N.D. Irrev. Rev.
(§23) 41b H Alk Irrev. Irrev. Irrev. N.D. N.D.
(§24) 31b Pro-Lys H Alk Irrev. Irrev. Irrev. Irrev. N.D. a Alk: ABP precursor bearing an alkyne; DtB: desthiobiotin probe b Panel of serine proteases abbreviations: urokinase plasminogen activator (uPA), cathepsin G (catG) N.D.: IC50 is greater than 10µM, and jump dilution was not performed
(§25) 2.2.3 Progress curves and Jump dilution experiments
(§26) Kinetic assays were performed in the following manner. The inhibitor was mixed with the substrate, and the buffer solution with the enzyme was added at the time zero. The progress curves show the release of para-nitroaniline (pNA) or 7-amino-4-methyl coumarin (AMC) as a function of time.
(§27) To monitor the dissociation of the inhibitor-enzyme, aliquots of the enzyme were incubated at 37 °C without and with the inhibitor at a concentration 10 times higher than its IC 50. The enzyme […]
(§28) min, the aliquots were diluted 10-fold or 100-fold into the substrate concentration and assay buffer used for the IC50 determination. The dissociation of the enzyme-inhibitor complex was monitored by substrate hydrolysis over time. Blue lines represent the control where no inhibitor was present. Pink lines represent the assay with inhibitor.

Another assay has as its target T7, Trypsin-3 (Homo sapiens, UniProt P35030).
T7 sequence (P35030 1-304): T4 sequence (P35030 1-304)
The assay is described as follows: Jump dilution, determination of inhibition type. Further details: purchased R&D. Conditions: inhibitor at 10 times IC50, 15 min, diluted 10-fold or 100-fold; Rev./Irrev. As to the method:
as §2, §3, §4, §5, §6, §7, §8, §9, §10, §11, §12, §13, §14, §15, §16, §17, §18, §19, §20, §21, §22, §23, §24, §25, §26, §27, §28

Where [6] appears, read: read-out: Thrombin IC50, desthiobiotin probes, 15 min preincubation at 37°C, mean ± SD.
The mark [7] stands for this setting: read-out: ChTryp IC50, desthiobiotin probes, 15 min preincubation at 37°C, mean ± SD.
Where [8] appears, read: read-out: CatG IC50, desthiobiotin probes, 15 min preincubation at 37°C, mean ± SD.
Where [9] appears, read: read-out: Trypsin-3 IC50, desthiobiotin probes, 15 min preincubation at 37°C, mean ± SD.
[10] abbreviates: read-out: β-tryptase IC50, desthiobiotin probes, 15 min preincubation at 37°C, mean ± SD.

Where two headings read alike, the source gives them in different places.

T5 sequence (P20231 31-275): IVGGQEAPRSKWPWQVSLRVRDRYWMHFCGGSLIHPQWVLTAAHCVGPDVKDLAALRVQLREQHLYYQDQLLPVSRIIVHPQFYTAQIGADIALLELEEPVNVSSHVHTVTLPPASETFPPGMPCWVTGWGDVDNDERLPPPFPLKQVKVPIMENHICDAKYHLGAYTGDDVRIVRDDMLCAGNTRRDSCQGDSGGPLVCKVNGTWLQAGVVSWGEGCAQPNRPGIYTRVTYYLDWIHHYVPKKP

One may read the IC50 as the concentration at which inhibition is half-maximal. In the case of `C[C@@H]1NC(=O)N[C@@H]1CCCCCC(=O)NCCOCCOCCOCCn1cc(CCCOC(=O)NC(c2ccc(NC(=N)N)cc2)P(=O)(Oc2ccc(Cl)cc2)Oc2ccc(Cl)cc2)nn1` (stereo partly shown) [57b], the IC50 in assay [1] (setting [6]) was > 10 µM; in assay [2] (setting [7]) it was > 10 µM; in assay [3] (setting [8]) it was 0.12 ± 0.04 µM; in assay [4] (setting [9]) it was 0.18 ± 0.07 µM; in assay [5] (setting [10]), 0.02 ± 0.0002 µM. On CatG, the “CatG jump dilution result” value is “Rev”. Further, at Trypsin-3, the “Trypsin-3 jump dilution result” value is listed as “Irrev”.

Turning to `C#CCCCOC(=O)NC(CCCNC(=N)N)P(=O)(Oc1ccccc1)Oc1ccccc1` (stereo not shown) [32b], the IC50 is 0.85 ± 0.13 µM in assay [1]; > 10 µM in assay [2]; 7.57 ± 0.58 µM in assay [3]; 0.03 ± 0.007 µM in assay [4]; 3.74 ± 0.53 µM in assay [5]. In addition, on CatG, the “CatG jump dilution result” value was “Rev”. Besides, the “Trypsin-3 jump dilution result” value at Trypsin-3 is “Irrev”.

With `C[C@@H]1NC(=O)N[C@@H]1CCCCCC(=O)NCCOCCOCCOCCn1cc(CCCOC(=O)NC(Cc2ccc(NC(=N)N)cc2)P(=O)(Oc2ccc(Cl)cc2)Oc2ccc(Cl)cc2)nn1` (stereo partly shown) [54b], the IC50 is 0.2 ± 0.02 µM in assay [1]; 5.6 ± 1.06 µM in assay [2]; 0.12 ± 0.01 µM in assay [3]; 0.008 ± 0.002 µM in assay [4]; 0.11 ± 0.009 µM in assay [5]. Besides, the “CatG jump dilution result” value at CatG is listed as “Rev”. Further, the “Trypsin-3 jump dilution result” value at Trypsin-3 is listed as “Rev”.

In the case of `C#CCCCOC(=O)NC(Cc1ccc(NC(=N)N)cc1)P(=O)(Oc1ccccc1)Oc1ccccc1` (stereo not shown) [34b], the IC50 in assay [1] is 8.49 ± 2.25 µM; in assay [2] it was > 10 µM; in assay [3], 0.45 ± 0.02 µM; in assay [4], 0.001 ± 0.0003 µM; in assay [5] it was 0.63 ± 0.03 µM. Besides, on CatG, the “CatG jump dilution result” value is “Rev”. Besides, on Trypsin-3, the “Trypsin-3 jump dilution result” value was “Rev”.

`C[C@@H]1NC(=O)N[C@@H]1CCCCCC(=O)NCCOCCOCCOCCn1cc(CCCOC(=O)NC(c2ccc(NC(=N)N)cc2)P(=O)(Oc2ccccc2)Oc2ccccc2)nn1` (stereo partly shown) [55b]: the IC50 in assay [1] (setting [6]) was > 10 µM; in assay [2] (setting [7]), > 10 µM; in assay [3] (setting [8]), 1.62 ± 0.09 µM; in assay [4] (setting [9]), 0.24 ± 0.01 µM; in assay [5] (setting [10]) it was 0.37 ± 0.09 µM. Further, the “CatG jump dilution result” value at CatG was “Irrev”. Also, the “Trypsin-3 jump dilution result” value on Trypsin-3 is reported as “Irrev”.

As for `CC(=O)Nc1ccc(OP(=O)(Oc2ccc(NC(C)=O)cc2)C(NC(=O)OCCCc2cn(CCOCCOCCOCCNC(=O)CCCCC[C@H]3NC(=O)N[C@H]3C)nn2)c2ccc(NC(=N)N)cc2)cc1` (stereo partly shown) [56b], the IC50 in assay [1] (setting [6]) is > 10 µM; in assay [2] (setting [7]) it was > 10 µM; in assay [3] (setting [8]) it was 0.62 ± 0.009 µM; in assay [4] (setting [9]), 0.22 ± 0.004 µM; in assay [5] (setting [10]), 0.39 ± 0.1 µM. In addition, on CatG, the “CatG jump dilution result” value is “Irrev”. Also, the “Trypsin-3 jump dilution result” value on Trypsin-3 is on record as “Irrev”.

On to `C#CCCCOC(=O)NC(Cc1ccc(NC(=N)N)cc1)P(=O)(Oc1ccc(NC(C)=O)cc1)Oc1ccc(NC(C)=O)cc1` (stereo not shown) [35b], for which the IC50 in assay [1] was 1.11 ± 0.05 µM; in assay [2] it was > 10 µM; in assay [3], 0.06 ± 0.006 µM; in assay [4] it was < 0.001 µM; in assay [5] it was 0.05 ± 0.003 µM. In addition, the “CatG jump dilution result” value on CatG is listed as “Rev”. Besides, on Trypsin-3, the “Trypsin-3 jump dilution result” value is “Rev”.

These data come from publication PMC9849758, “Chemically diverse activity-based probes with unexpected inhibitory mechanisms targeting trypsin-like serine proteases” (Frontiers in Chemistry, 2023).
